Legend:
Assay type in all cases: in vivo
CLTB-36 = experiment: Guinea pig antibody response to CLTB-36 in different adjuvants, ELISA titer against CLTB-36; settings: guinea pigs (n = 3) immunized with 20 μg CLTB-36 in the named adjuvant; boosters at 2, 4 and 6 weeks
CLTB-56 = experiment: Guinea pig antibody response to CLTB-36 in different adjuvants, ELISA titer against CLTB-56; settings: guinea pigs (n = 3) immunized with 20 μg CLTB-36 in the named adjuvant; boosters at 2, 4 and 6 weeks
[1] = system: peptide-specific IgG antibodies; experiment: Guinea pig antibody responses to synthetic peptides formulated with different adjuvants (peptide-specific ELISA); settings: mean titer of three guinea pigs, three injections
[2] = adjuvant CFA, 100 μg peptide per dose (CLTB-36 20 μg)
[3] = adjuvant alum, 100 μg peptide per dose (CLTB-36 20 μg)
[4] = peptide in PBS (no adjuvant), 100 μg peptide per dose (CLTB-36 20 μg)
[5] = adjuvant BAY R1005, 100 μg peptide per dose (CLTB-36 20 μg)
[6] = adjuvant TPC, 100 μg peptide per dose (CLTB-36 20 μg)
[7] = adjuvant OTH, 100 μg peptide per dose (CLTB-36 20 μg)
[8] = Table 3, adjuvant BAY R1005 + alum, 100 μg peptide per dose

CC(=O)O.CCCCCCCCCCCCCCCCCCN(C(=O)CCCCCCCCCCC)[C@@H]1O[C@H](CO)[C@@H](O)[C@H](O)[C@H]1NC(=O)[C@@H](N)CC(C)C [BAY R1005, N-(2-deoxy-2-L-leucylamino-β-D-glucopyranosyl)-N-octadecyldodecanamide acetate]
Average titers against CLTB-36 (CLTB-36): 62,500 | Average titers against CLTB-56 (CLTB-56): 4,333

IKEIDESESEDYAKEGFRAP [PSP-AA]
Peptide-Specific Antibody Titre [1, 2]: 12,500 | Peptide-Specific Antibody Titre [1, 3]: 1,600 | Peptide-Specific Antibody Titre [1, 4]: 200

TVGKKTYQVEACCSNLSYVKFGM [TBP2-3]
Peptide-Specific Antibody Titre [1, 5]: 32,500 | Peptide-Specific Antibody Titre [1, 2]: 12,500 | Peptide-Specific Antibody Titre [1, 3]: 43,333 | Peptide-Specific Antibody Titre [1, 4]: 400

TKQRQNKPPSKPNNDFHFEVFNFVPC [RSV-G1]
Peptide-Specific Antibody Titre [1, 5]: 31,500 | Peptide-Specific Antibody Titre [1, 2]: 315,000 | Peptide-Specific Antibody Titre [1, 6]: 6,400 | Peptide-Specific Antibody Titre [1, 3]: 128,000 | Peptide-Specific Antibody Titre [1, 4]: 1,600

GPKEPFRDYVDRFYKNRKRIHIGPGRAFYTTKN [CLTB-36]
Peptide-Specific Antibody Titre [1, 5]: 72,800 | Peptide-Specific Antibody Titre [1, 2]: 256,000 | Peptide-Specific Antibody Titre [1, 7]: 6,400 | Peptide-Specific Antibody Titre [1, 6]: 3,200 | Peptide-Specific Antibody Titre [1, 3]: 10,000 | Peptide-Specific Antibody Titre [1, 4]: 400

PIVNKQSCSISNIETVIEFQQ [RSV-FND2]
Peptide-Specific Antibody Titre [1, 8]: 25,600 | Peptide-Specific Antibody Titre ([1]; Table 3, adjuvant BAY R1005, 100 μg peptide per dose): 10,000 | Peptide-Specific Antibody Titre ([1]; Table 3, adjuvant alum, 100 μg peptide per dose): 7,800 | Peptide-Specific Antibody Titre [1, 5]: 10,000 | Peptide-Specific Antibody Titre [1, 2]: 12,800 | Peptide-Specific Antibody Titre [1, 7]: 6,400 | Peptide-Specific Antibody Titre [1, 6]: 3,200 | Peptide-Specific Antibody Titre [1, 3]: 7,800 | Peptide-Specific Antibody Titre [1, 4]: 400

NQITSALSTQQEFRDLKKYLPSKDKSVVSLQDRAC [HIBP1-5E]
Peptide-Specific Antibody Titre [1, 5]: 32,500 | Peptide-Specific Antibody Titre [1, 2]: 312,500 | Peptide-Specific Antibody Titre [1, 6]: 1,600 | Peptide-Specific Antibody Titre [1, 3]: 8,333 | Peptide-Specific Antibody Titre [1, 4]: 200

PDPGDLVEYIMNYTGNQQSRWGLGSPNCHGPDWASPVCQRHSP [RV-EP27]
Peptide-Specific Antibody Titre [1, 2]: 128,000 | Peptide-Specific Antibody Titre [1, 7]: 25,600 | Peptide-Specific Antibody Titre [1, 3]: 12,800 | Peptide-Specific Antibody Titre [1, 4]: 400

GPKEPFRDYVDRFYKNTRQSTPIGLGQALYTTRG [CLTB-76]
Peptide-Specific Antibody Titre [1, 5]: 45,833 | Peptide-Specific Antibody Titre [1, 2]: 625,000 | Peptide-Specific Antibody Titre [1, 7]: 6,400 | Peptide-Specific Antibody Titre [1, 6]: 3,200 | Peptide-Specific Antibody Titre [1, 3]: 9,166 | Peptide-Specific Antibody Titre [1, 4]: 1,833

PQPGPQPPQPPQPQPEAPAPQPPC [69K-P1]
Peptide-Specific Antibody Titre [1, 5]: 32,500 | Peptide-Specific Antibody Titre [1, 2]: 10,000 | Peptide-Specific Antibody Titre [1, 6]: 1,600 | Peptide-Specific Antibody Titre [1, 3]: 32,500 | Peptide-Specific Antibody Titre [1, 4]: 800

CSNNPTCWAICKRIPNKKPGKKT [RSV-G2]
Peptide-Specific Antibody Titre [1, 5]: 3,200 | Peptide-Specific Antibody Titre [1, 2]: 128,000 | Peptide-Specific Antibody Titre [1, 6]: 1,600 | Peptide-Specific Antibody Titre [1, 3]: 31,500 | Peptide-Specific Antibody Titre [1, 4]: 1,280

QSYSIMSIIKEEVLAYAVQLPLPLYGVIDTP [RSV-F]
Peptide-Specific Antibody Titre [1, 8]: 128,000 | Peptide-Specific Antibody Titre [1, 5]: 3,850 | Peptide-Specific Antibody Titre [1, 2]: 6,400 | Peptide-Specific Antibody Titre [1, 7]: 3,200 | Peptide-Specific Antibody Titre [1, 6]: 1,600 | Peptide-Specific Antibody Titre [1, 3]: 32,000 | Peptide-Specific Antibody Titre [1, 4]: 500

GPKEPFRDYVDRFYKNTRKRIRIQRGGRAFVTIGK [CLTB-72]
Peptide-Specific Antibody Titre [1, 5]: 45,800 | Peptide-Specific Antibody Titre [1, 2]: 312,500 | Peptide-Specific Antibody Titre [1, 7]: 6,400 | Peptide-Specific Antibody Titre [1, 6]: 3,200 | Peptide-Specific Antibody Titre [1, 3]: 37,500 | Peptide-Specific Antibody Titre [1, 4]: 2,333

Source: patent US6764682B1, “Adjuvant compositions containing more than one adjuvant” (priority 1994, dated 2004)
